From PMC3086094 (Journal of molecular structure, 2011)

Columns and labels:
[1] = tested on: calf thymus DNA (EB-DNA complex); conditions: binding to DNA; cited from earlier work
[2] = tested on: HCT-116 (human colon carcinoma); test: MTS cytotoxicity assay, HCT-116; format: cell-based
[3] = tested on: CCD-18Co (human colon fibroblasts)
[4] = tested on: Caco-2 (human epithelial colorectal adenocarcinoma); test: cells
[5] = tested on: CCD-18Co (human colon fibroblasts); test: cells

| SMILES | KEB, binding constant for ethidium bromide [1] [M⁻¹] | IC50 ([2]; HCT-116, 24 h) [µM] | IC50 ([2]; HCT-116, 48 h) [µM] | IC50 ([2]; HCT-116, 72 h) [µM] | cytotoxic selectivity, cancer cells versus normal cells CCD-18Co [3] | IC50 ([4]; Caco-2, 24 h) [µM] | IC50 ([4]; Caco-2, 48 h) [µM] | IC50 ([4]; Caco-2, 72 h) [µM] | IC50 ([5]; 24 h) [µM] | IC50 ([5]; 48 h) [µM] | IC50 ([5]; 72 h) [µM] |
| --- | --- | --- | --- | --- | --- | --- | --- | --- | --- | --- | --- |
| CC[n+]1c(-c2ccccc2)c2cc(N)ccc2c2ccc(N)cc21 [ethidium bromide] | 1.2e+06 |  |  |  |  |  |  |  |  |  |  |
| COc1cc([C@@H]2c3cc4c(cc3[C@@H](O[C@@H]3O[C@@H]5CO[C@@H](C)O[C@H]5[C@H](O)[C@H]3O)[C@H]3COC(=O)[C@H]23)OCO4)cc(OC)c1O [Etoposide] |  | 27.2 ± 1.2 | 22.9 ± 1.5 | 18.3 ± 1.4 | ~ 2.5 times | 23.1 ± 1.2 | 17.9 ± 1.3 | 16.5 ± 2 | 50.1 ± 1.5 | 45.2 ± 1.1 | 42.2 ± 1 |
